According to PMC9124243 (Cell chemical biology, 2021):
Like-named read-outs stand apart in the source and are kept apart here.

Key:
[1] = tested on: Msm; assay: MIC assays for antibiotic synergy with TP; type: cell-based, Mycobacterium smegmatis; conditions: for improvement in MIC50: with 100 μM TP added
[2] = tested on: Msm; conditions: below the limit of detection; ref Fay et al., 2021; cited from earlier work
[3] = target: Mtb DnaK-DnaJ2-GrpE (Mycobacterium tuberculosis, UniProt P9WMJ9); assay: biochemical
[4] = target: Mtb DnaK^FL (Mycobacterium tuberculosis, UniProt P9WMJ9); type: binding; conditions: FP competition
[5] = target: human Hsc70 and DnaJA2 (Homo sapiens, UniProt P11142); assay: Denatured luciferase refolding by human chaperones; type: biochemical
[6] = target: mycobacterial DnaK and GrpE with DnaJ2 (Mycobacterium tuberculosis, UniProt P9WMJ9); type: biochemical; conditions: excess compound
[7] = target: Mtb DnaK activation by DnaJ2 and GrpE (Mycobacterium tuberculosis, UniProt P9WMJ9); type: biochemical; conditions: for DnaJ2- and GrpE-mediated activation of DnaK: excess HCV inhibitor, DnaK 4 μM
[8] = tested on: M. smegmatis (Msm); assay: Mycobacterial growth inhibition assay; type: cell-based, Mycobacterium smegmatis; conditions: for effect on Msm growth: wild-type Msm
[9] = tested on: luciferase; assay: Luciferase counter-assay; type: biochemical
[10] = target: DnaK^SBD, residues 360-625 (Mycobacterium tuberculosis, UniProt P9WMJ9); type: binding; conditions: FP competition
[11] = target: Mtb DnaK (Mycobacterium tuberculosis, UniProt P9WMJ9); type: biochemical; conditions: excess compound, DnaK without cofactors
[12] = tested on: Msm; type: cell-based, Mycobacterium smegmatis
[13] = target: proteinase K (Parengyodontium album, UniProt P06873); assay: Hemoglobin proteolysis control for proteinase K activity; type: biochemical; conditions: 50 μM TP
[14] = target: HCV protease (NS3/4A); conditions: ref Grillot et al., 2011; cited from earlier work
[15] = kinetic analysis of ATP hydrolysis by DnaK-DnaJ2-GrpE

Mtb DnaK activation by DnaJ2 and GrpE, sequence (P9WMJ9 whole entry): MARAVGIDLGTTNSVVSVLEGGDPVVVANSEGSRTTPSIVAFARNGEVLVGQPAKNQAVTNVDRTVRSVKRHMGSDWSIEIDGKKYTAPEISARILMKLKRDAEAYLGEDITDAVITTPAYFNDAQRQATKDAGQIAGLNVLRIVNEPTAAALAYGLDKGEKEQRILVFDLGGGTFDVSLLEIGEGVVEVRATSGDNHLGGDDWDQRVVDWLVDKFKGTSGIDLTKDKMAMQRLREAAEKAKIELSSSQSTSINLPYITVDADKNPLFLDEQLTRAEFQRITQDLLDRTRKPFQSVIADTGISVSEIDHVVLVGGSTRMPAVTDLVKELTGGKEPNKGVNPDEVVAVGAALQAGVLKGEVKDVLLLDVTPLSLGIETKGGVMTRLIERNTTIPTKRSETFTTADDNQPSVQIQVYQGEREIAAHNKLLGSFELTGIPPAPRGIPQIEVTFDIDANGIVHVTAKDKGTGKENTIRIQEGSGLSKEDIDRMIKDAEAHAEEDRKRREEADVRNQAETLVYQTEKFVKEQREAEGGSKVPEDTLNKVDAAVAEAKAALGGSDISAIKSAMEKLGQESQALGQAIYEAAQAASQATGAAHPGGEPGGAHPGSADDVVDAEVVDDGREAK
Mtb DnaK-DnaJ2-GrpE, sequence (P9WMJ9 whole entry): as above
human Hsc70 and DnaJA2, sequence (P11142 whole entry): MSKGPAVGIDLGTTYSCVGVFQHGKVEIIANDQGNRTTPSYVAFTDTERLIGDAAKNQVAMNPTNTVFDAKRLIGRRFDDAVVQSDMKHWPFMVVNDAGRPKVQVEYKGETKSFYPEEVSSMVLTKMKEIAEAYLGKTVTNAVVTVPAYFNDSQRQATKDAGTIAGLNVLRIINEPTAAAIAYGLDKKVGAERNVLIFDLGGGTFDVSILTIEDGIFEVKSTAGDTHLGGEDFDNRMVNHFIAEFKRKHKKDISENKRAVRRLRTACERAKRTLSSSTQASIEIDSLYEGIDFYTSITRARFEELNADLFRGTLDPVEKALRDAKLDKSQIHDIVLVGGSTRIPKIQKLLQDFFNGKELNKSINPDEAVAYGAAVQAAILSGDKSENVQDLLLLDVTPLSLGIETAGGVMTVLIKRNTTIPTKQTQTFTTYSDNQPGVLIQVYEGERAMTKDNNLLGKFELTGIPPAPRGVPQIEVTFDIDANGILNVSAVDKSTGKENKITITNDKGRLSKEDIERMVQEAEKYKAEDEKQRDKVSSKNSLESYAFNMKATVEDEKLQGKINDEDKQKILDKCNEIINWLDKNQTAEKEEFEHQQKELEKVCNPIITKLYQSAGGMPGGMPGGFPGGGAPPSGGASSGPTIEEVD
mycobacterial DnaK and GrpE with DnaJ2, sequence (P9WMJ9 whole entry): as the sequence (P9WMJ9 whole entry) above
Mtb DnaK, sequence (P9WMJ9 whole entry): as above
Mtb DnaK^FL, sequence (P9WMJ9 whole entry): as above
proteinase K, sequence (P06873 106-384): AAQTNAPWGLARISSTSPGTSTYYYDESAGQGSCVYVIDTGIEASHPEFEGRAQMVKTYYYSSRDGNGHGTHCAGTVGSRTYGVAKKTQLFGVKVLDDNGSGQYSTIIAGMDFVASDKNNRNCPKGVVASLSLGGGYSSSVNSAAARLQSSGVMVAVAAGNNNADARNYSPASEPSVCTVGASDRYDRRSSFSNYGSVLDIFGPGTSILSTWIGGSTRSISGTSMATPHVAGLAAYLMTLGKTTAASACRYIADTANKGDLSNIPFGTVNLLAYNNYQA
DnaK^SBD, residues 360-625, sequence (P9WMJ9 360-625): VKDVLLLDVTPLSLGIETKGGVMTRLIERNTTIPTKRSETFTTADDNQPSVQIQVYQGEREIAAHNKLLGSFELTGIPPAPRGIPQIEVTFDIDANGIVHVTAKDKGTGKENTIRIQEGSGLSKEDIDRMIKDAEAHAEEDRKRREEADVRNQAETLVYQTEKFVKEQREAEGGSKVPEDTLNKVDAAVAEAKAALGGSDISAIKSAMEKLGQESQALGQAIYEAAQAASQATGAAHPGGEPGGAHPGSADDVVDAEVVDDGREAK

NC[C@H]1O[C@H](O[C@H]2[C@H](O)[C@@H](O[C@H]3O[C@H](CO)[C@@H](O)[C@H](N)[C@H]3O)[C@H](N)C[C@@H]2N)[C@H](O)[C@@H](O)[C@@H]1O [kanamycin]
improvement in MIC50 [1]: ~ 2 fold

CO[C@H]1/C=C/O[C@@]2(C)Oc3c(C)c(O)c4c(O)c(c(/C=N/N5CCN(C)CC5)c(O)c4c3C2=O)NC(=O)/C(C)=C\C=C\[C@H](C)[C@H](O)[C@@H](C)[C@@H](O)[C@@H](C)[C@H](OC(C)=O)[C@@H]1C [RIF, rifampicin]
FOR value of Msm ΔdnaJ2 cells [2]: < 10^−10

CC(C)(C)NC(=O)N[C@H](C(=O)N1C[C@H]2[C@@H]([C@H]1C(=O)NC(CC1CCC1)C(=O)C(N)=O)C2(C)C)C(C)(C)C (some centres unmarked) [BC, boceprevir]
inhibition of DnaK-DnaJ2-GrpE ATPase activity in dose-response assay ([3]; dose-response): inactive | competition with FL-NR for binding to DnaK [4]: no effect on binding of the probe | inhibition of human chaperones ([5]; excess compound): does not inhibit | effect on refolding reactions [6]: only a slight effect

[H]/N=C(/N)N[C@H]1[C@H](O)[C@@H](O)[C@H](O[C@@H]2O[C@@H](C)[C@](O)(C=O)[C@H]2O[C@@H]2O[C@@H](CO)[C@H](O)[C@@H](O)[C@@H]2NC)[C@@H](N/C(N)=N\[H])[C@@H]1O [streptomycin]
improvement in MIC50 [1]: ~4 fold

4BB-Val-Val-Pro-Leu-OH [Compound 3]
inhibition of DnaK-DnaJ2-GrpE ATPase activity in dose-response assay [3]: no activity

COc1ccc2c(O[C@@H]3C[C@H]4C(=O)N[C@]5(C(=O)NS(=O)(=O)C6CC6)C[C@H]5/C=C\CCCCN(C)C(=O)[C@@H]4C3)cc(-c3nc(C(C)C)cs3)nc2c1C [simeprevir]
IC50 value relative to that of TP ([3]; DnaK-DnaJ2-GrpE ATPase): ~ 8 fold | inhibition of DnaK-DnaJ2-GrpE ATPase activity in dose-response assay ([3]; dose-response): measurable inhibition | DnaJ2- and GrpE-mediated activation of DnaK [7]: significantly disrupted | effect on Msm growth [8]: did not affect Msm growth

CNC(=O)[C@H]1O[C@@H](n2cnc3c(NCc4cccc(I)c4)nc(Cl)nc32)[C@H](O)[C@@H]1O [MECA, 2Cl-IB-MECA]
IC50 [3]: ~4500 nM | competition with ATP [3, 15]: no competition with ATP | activity against luciferase alone [9]: no activity | DnaJ2-mediated activation of DnaK's ATPase activity [7]: hindered | activation of DnaK by increasing concentrations of GrpE ([7]; excess MECA, sub-stoichiometric DnaJ2): nearly abrogated | effect on Msm growth [8]: only TP appears to cause growth inhibition of mycobacterial cells

CCC[C@H](NC(=O)[C@@H]1[C@H]2CCC[C@H]2CN1C(=O)[C@@H](NC(=O)[C@@H](NC(=O)c1cnccn1)C1CCCCC1)C(C)(C)C)C(=O)C(=O)NC1CC1 [TP, Telaprevir]
increase of the KM of DnaK [3, 15]: ~ 2 fold | activity against luciferase alone [9]: no activity | DnaJ2- and GrpE-mediated activation of DnaK [7]: significantly disrupted | displacement of FL-NR from DnaK^SBD [10]: displace FL-NR | effect on DnaK ATPase activity [11]: slightly inhibits | refolding activity compared to DMSO alone ([5]; 100 μM TP): 35% | concentration causing growth inhibition [8]: > 100 µM | growth of Msm ΔdnaJ1 ([8]; 100 μM TP): growth defects | effect on activity of rifampicin ([1]; 100 μM TP): does not affect the activity | lowering of the FOR of RIF ([12]; 100 μM TP + 240 μM RIF, Msm): about 1 log10 | FOR of Msm for RIF with TP added ([12]; 240 μM RIF + 100 μM TP): ~ 10^−8 | effect on cleavage by proteinase K [13]: did not affect cleavage by proteinase K | Ki [14]: 44 nM

4BB-Val-Val-Pro-Leu-OMe [Compound 6]
inhibition of DnaK-DnaJ2-GrpE ATPase activity in dose-response assay [3]: no activity
